Literature values as cited in patent publication US9585896B2, “Compositions comprising omega-3 fatty acids and vitamin D for psoriasis, and methods and uses thereof” (PRONOVA BIOPHARMA NORGE AS, priority 2012, dated 2017).

System: patients with psoriasis
Settings: over a 12-week period, versus high-dose etanercept

Ustekinumab: FDA-approved IL-12/IL-23 blocker targeting the common domain p40
efficacy in patients with psoriasis: higher efficacy than high-dose etanercept
